Literature values as cited in patent publication US20170058282A1 (priority 2015, published 2017).

Test system: heme sensor system HssRS (histidine kinase HssS / response regulator HssR)
Details: natural HssRS; cited from earlier work

C=CC1=C(C)c2cc3[nH]c(cc4nc(cc5[nH]c(cc1n2)c(C)c5CCC(=O)O)C(CCC(=O)O)=C4C)c(C)c3C=C.[Fe+2] [heme]
responsive concentrations of heme: sub-μM
